One data set concerns the target IRAK1 (Homo sapiens, UniProt P51617). To be noted: 100 μM; cited from earlier work.
The target in data set [1] is T1, Mitochondrial respiratory complex II (Rattus norvegicus, UniProt P21913+Q641Z9+Q6PCT8+Q920L2).
T1 construct: measured spectrophotometrically using isolated rat heart mitochondria; from tissue; host or cells: rat heart mitochondria / sub-mitochondrial particles
In words: Mitochondrial respiratory complex II inhibition assay. It counts as biochemical. Summed up: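 Rat heart mitochondria or sub-mitochondrial particles in phosphate buffer pH 7.4 with 40 μM DCPIP, 1 mM KCN, 10 μM rotenone and 50 μM co-enzyme Q2.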

The subject of a further data set is MDA-MB-468 TNBC cells. To be noted: cited from earlier work.
Data set [2] deals with phosphorylated vascular endothelial growth factor receptor-2 (VEGFR2). The data set can be described thus: Western blot of pVEGFR2 in VEGF-treated HUVEC cells. Format: cell-based, human. Particulars: 20 μM, VEGF 10 ng/mL, 5 min. As to the method: Cells were treated with test compounds (20 μM) along with VEGF (10 ng/mL) for 5 min. The DMSO was used as a negative control, whereas DMSO+VEGF was used as a positive control. Cells were lysed using RIPA buffer (10 mmol/L Tris-HCl, 1 mmol/L EDTA, 0.5 mmol/L EGTA, 1% Triton X-100, 0.1% sodium deoxycholate, 0.1% SDS and 140 mmol/L NaCl), supplemented with protease and phosphatase inhibitors (Halt Protease and Phosphatase Inhibitor). Cell lysates were centrifuged, and the supernatants were mixed with appropriate amount of 5×SDS loading buffer. Proteins were resolved on polyacrylamide gel and transferred onto nitrocellulose/PVDF membrane, blocked for 1 hour with 10% milk block prepared in 0.1% Tween 20 in 1×PBS (PBST), and treated with pVEGFR2 primary antibody at 4° C. overnight. The membrane was washed thrice with PBST, 5 minutes each, and treated with secondary antibody for 1 hour. The membrane was further washed three times, 5 minutes each, with PBST and developed using chemiluminescence, and the bands were analyzed using densitometry.
A general note: A western blot detects proteins with antibodies after separation by electrophoresis.

The test system of data set [3] is hormone-dependent mammary carcinomas. Particulars: 300 mg/kg, rats; cited from earlier work.
The test system of data set [4] is MCF-7 breast cancer cells. Particulars: cited from earlier work.
Data set [5] deals with T2, Mitochondrial respiratory complex II (CII) (Rattus norvegicus, UniProt P21913+Q641Z9+Q6PCT8+Q920L2).
T2 construct: host or cells: rat heart mitochondria
Particulars: rat heart mitochondria, literature; cited from earlier work.

In data set [6] the test system is 22Rv1 prostate cancer cells. In words: MTS cytotoxicity assay in 22Rv1 prostate cancer cells. Particulars: for effect on cell viability of prostate cancer cells: 100 μM up to 72 hours. Summed up: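 Cells seeded at 1×10^5 per well and dosed after 24 h at the indicated concentrations (final DMSO <1%), then incubated 48-72 hours at 37° C, 5% CO2. MTS added for 2-4 hr; absorbance at 490 nm, viability expressed as percentage of controls.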
(Formazan colour is commonly taken as a measure of viable cells.)

Another data set deals with breast cancer. To be noted: 200-300 mg per day, cited from earlier work.
For the next data set, the target named is T3, TTK (Homo sapiens, UniProt P33981).
T3 sequence (P33981 1-857): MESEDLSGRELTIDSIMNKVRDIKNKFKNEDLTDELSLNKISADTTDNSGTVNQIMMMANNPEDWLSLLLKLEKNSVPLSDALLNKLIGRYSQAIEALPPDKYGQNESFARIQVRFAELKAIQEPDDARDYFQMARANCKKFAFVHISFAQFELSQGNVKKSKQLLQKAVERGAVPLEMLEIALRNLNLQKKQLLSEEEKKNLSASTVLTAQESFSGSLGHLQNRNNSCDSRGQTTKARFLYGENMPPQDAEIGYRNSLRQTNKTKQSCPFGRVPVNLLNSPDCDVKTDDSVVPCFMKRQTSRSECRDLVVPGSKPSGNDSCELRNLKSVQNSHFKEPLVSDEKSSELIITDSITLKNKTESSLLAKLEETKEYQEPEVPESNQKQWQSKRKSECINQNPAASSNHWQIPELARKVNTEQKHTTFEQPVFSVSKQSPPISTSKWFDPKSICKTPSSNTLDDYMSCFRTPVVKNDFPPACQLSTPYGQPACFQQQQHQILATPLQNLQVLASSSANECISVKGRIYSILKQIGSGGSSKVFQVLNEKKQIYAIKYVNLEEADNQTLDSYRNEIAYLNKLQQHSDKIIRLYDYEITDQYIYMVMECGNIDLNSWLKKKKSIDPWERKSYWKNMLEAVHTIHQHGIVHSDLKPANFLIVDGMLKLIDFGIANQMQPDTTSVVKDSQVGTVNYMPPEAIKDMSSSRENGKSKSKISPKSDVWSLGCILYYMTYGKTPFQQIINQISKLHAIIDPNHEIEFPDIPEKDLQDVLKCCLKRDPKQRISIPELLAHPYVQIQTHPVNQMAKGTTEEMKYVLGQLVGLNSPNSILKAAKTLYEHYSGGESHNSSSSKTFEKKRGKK
Particulars: 100 μM; cited from earlier work.

Where “and” joins values, the source holds several entries; their conditions need not be identical. Equal entries are not always repeated.

The term inhibition denotes the percentage by which the read-out fell short of the control. As a reminder, the IC50 is the concentration needed to halve the response being measured.

T1 sequence (Q920L2 35-656): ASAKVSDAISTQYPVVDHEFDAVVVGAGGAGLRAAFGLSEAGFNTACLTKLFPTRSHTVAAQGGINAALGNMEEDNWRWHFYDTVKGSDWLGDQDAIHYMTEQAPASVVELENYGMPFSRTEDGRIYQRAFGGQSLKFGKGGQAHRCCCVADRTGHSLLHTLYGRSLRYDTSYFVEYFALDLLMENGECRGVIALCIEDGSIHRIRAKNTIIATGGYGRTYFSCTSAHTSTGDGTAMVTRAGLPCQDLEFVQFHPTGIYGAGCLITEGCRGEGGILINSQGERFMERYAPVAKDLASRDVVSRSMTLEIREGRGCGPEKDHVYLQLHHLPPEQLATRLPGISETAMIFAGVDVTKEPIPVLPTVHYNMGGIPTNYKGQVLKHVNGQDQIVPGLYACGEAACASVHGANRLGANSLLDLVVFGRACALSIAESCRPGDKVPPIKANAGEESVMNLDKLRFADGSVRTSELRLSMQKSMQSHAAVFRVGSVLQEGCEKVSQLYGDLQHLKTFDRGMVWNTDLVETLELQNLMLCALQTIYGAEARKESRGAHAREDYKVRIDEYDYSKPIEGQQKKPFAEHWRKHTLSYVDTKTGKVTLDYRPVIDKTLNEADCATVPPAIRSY
T1 sequence (P21913 31-282): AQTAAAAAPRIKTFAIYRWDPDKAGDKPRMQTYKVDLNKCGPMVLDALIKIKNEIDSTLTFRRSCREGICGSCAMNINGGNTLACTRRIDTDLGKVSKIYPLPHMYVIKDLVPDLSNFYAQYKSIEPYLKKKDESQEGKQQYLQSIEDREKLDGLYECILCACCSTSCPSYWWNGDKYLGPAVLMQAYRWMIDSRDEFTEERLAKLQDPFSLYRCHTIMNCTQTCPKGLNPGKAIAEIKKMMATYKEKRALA
T1 sequence (Q641Z9 1-169): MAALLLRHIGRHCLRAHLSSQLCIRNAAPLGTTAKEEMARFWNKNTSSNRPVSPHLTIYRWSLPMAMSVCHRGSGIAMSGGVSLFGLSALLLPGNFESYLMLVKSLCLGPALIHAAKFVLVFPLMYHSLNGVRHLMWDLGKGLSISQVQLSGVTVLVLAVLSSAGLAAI
T1 sequence (Q6PCT8 57-159): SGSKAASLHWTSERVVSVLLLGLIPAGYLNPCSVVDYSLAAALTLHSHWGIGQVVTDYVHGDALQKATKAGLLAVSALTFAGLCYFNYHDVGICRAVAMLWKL
IRAK1, sequence (P51617 whole entry): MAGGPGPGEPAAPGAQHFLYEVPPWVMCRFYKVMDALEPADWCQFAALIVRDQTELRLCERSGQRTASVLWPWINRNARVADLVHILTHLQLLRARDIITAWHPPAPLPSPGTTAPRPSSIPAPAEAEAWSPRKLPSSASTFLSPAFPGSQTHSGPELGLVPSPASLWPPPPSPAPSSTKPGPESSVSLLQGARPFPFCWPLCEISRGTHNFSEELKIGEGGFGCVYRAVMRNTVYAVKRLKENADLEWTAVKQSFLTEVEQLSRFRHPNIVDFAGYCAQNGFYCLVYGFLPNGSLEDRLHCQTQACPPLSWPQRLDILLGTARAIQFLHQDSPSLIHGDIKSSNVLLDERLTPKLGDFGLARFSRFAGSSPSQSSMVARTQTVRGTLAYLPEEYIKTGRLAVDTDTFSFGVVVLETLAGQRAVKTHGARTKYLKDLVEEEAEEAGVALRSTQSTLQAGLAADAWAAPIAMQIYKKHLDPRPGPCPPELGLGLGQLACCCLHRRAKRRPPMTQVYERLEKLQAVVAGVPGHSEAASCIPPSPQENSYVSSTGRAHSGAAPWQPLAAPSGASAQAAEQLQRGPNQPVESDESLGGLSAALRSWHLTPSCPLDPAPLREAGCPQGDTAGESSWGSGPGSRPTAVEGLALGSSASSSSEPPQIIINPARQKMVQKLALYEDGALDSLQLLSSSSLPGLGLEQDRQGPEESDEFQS
T2 sequence (Q920L2 35-656): as the sequence (Q920L2 35-656) above
T2 sequence (P21913 31-282): as the sequence (P21913 31-282) above
T2 sequence (Q641Z9 30-169 limits assumed): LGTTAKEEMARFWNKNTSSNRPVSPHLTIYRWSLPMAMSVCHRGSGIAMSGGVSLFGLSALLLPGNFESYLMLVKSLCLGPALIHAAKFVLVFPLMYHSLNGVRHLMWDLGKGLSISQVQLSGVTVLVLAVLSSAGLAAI
T2 sequence (Q6PCT8 57-159): as the sequence (Q6PCT8 57-159) above

Consider `CC1=Nc2ccc(Cl)cc2S(=O)(=O)N1` [Diazoxide, 7-chloro-3-methyl-2H-1,2,4-benzothiadiazine 1,1-dioxide, reference compound], for which the “inhibition of IRAK1” value at IRAK1 was 9%. In data set [1] (100 μM, relative to DMSO control), the “inhibition of CII” value is “no CII inhibition activity”. Also, the inhibition at 100 µM in data set [1] (100 μM, relative to DMSO control, read-out: inhibition of CII) worked out at 9%. Besides, the IC50 in [1] (isolated rat heart mitochondria, mean ±SD of n = 4, read-out: CII IC50) is 1240 µM and > 1000 µM; in the data set with MDA-MB-468 TNBC cells it was 0.87 µM; in [4], 130 µM; in data set [5], 32 µM. The “attenuation of pVEGFR2 expression” value in data set [2] is “good activity to suppress pVEGFR2”. In addition, in data set [3], the adverse effect result is recorded as “mild reversible diabetes”. In addition, the “inhibition of tumor growth” value in [3] is on record as 90%. The “effect on cell viability of prostate cancer cells” value in data set [6] was “no effect to reduce cell viability”; in data set [6] (listed as 9) it was “no effect on cell viability”. Moreover, the cytotoxicity at 100 µM in data set [6] (Homo sapiens, 22Rv1, 48 h, read-out: reduction of 22Rv1 cell viability) worked out at 12%. Further, in the data set on breast cancer (nine patients), the response rate was 33%. Also, the “duration of stable disease” value in the data set on breast cancer is recorded as 4-8 months. The “inhibition of TTK” value on TTK is 15%.

These data come from US20230219912A1, “HALOGENATED BENZOTHIADIAZINES FOR THE TREATMENT OF CANCER” (BOARD OF REGENTS OF THE UNIVERSITY OF NEBRASKA, priority 2020, published 2023).
